Results from patent publication US9181218B2, “Compounds for improved stem cell differentiation into hepatocytes” (Hoffmann-La Roche Inc., priority 2013, dated 2015).

Tested on: interferon-stimulated genes (ISGs)
Experiment: Microarray analysis of iCell Hepatocytes treated with the compound of example 1
Format: cell-based, Human
Details: DAY 7
From the text: iCell Hepatocytes treated with the compound of example 1 results in the up and down-regulation of a host of genes; including a kinetic effect on interferon-stimulated gene (ISGs) expression. See FIGS. 15-I and 15-II, 16-I and 16-II and 18 and Table 1.

`O=C(NCc1cccc(F)c1)c1cccc2nc(-c3c(NC[C@@H](O)c4ccccc4)cc[nH]c3=O)[nH]c12` [Example 1, 2-[4-((S)-2-hydroxy-2-phenyl-ethylamino)-2-oxo-1,2-dihydro-pyridin-3-yl]-3H-benzoimidazole-4-carboxylic acid 3-fluoro-benzylamide] was tested, and the “ARHGEF3 Raw Est Fold Change” value was −2.76, the “ASNS Raw Est Fold Change” value was 1.63 and the “ATP1B3 Raw Est Fold Change” value was −1.72. The “ATP10D Raw Est Fold Change” value was −2.21, the “AXL Raw Est Fold Change” value was 5.52 and the “B2M Raw Est Fold Change” value was −1.77. The “B4GALT5 Raw Est Fold Change” value was −2.50, the “BAG1 Raw Est Fold Change” value was 1.33 and the “BCL3 Raw Est Fold Change” value was −3.15. The “BHMT Raw Est Fold Change” value was 100.46, the “BLVRA Raw Est Fold Change” value was −2.70 and the “BRF2 Raw Est Fold Change” value was 1.46. For the same compound, the “C1R Raw Est Fold Change” value was −2.64, the “C1S Raw Est Fold Change” value was −2.00 and the “C4BPA Raw Est Fold Change” value was −3.52. For the same compound, the “C4orf33 Raw Est Fold Change” value was 1.65, the “C6orf85 Raw Est Fold Change” value was 1.31 and the “C10orf10 Raw Est Fold Change” value was −6.70. The “CAPN2 Raw Est Fold Change” value was −1.90, the “CASP1 Raw Est Fold Change” value was 1.40 and the “CASP4 Raw Est Fold Change” value was −43.41. The “CASP5 Raw Est Fold Change” value was −11.12, the “CCL19 Raw Est Fold Change” value was 2.16 and the “CCND3 Raw Est Fold Change” value was −4.18. The “CD3D Raw Est Fold Change” value was −3.72, the “CD9 Raw Est Fold Change” value was 4.66 and the “CD38 Raw Est Fold Change” value was −60.43. The “CD47 Raw Est Fold Change” value was −2.51, the “CD163 Raw Est Fold Change” value was 4.54 and the “CD164 Raw Est Fold Change” value was −1.47. The “CD300LF Raw Est Fold Change” value was −15.50, the “CEBPD Raw Est Fold Change” value was −6.95 and the “CFB Raw Est Fold Change” value was −2.96. For the same compound, the “CHST12 Raw Est Fold Change” value was −1.59, the “CKB Raw Est Fold Change” value was 2.95 and the “CLEC2D Raw Est Fold Change” value was 2.54. The “CLEC4E Raw Est Fold Change” value was 4.33, the “COL16A1 Raw Est Fold Change” value was 1.53 and the “CPT1A Raw Est Fold Change” value was 1.49. For the same compound, the “CREB3L3 Raw Est Fold Change” value was −4.65, the “CREM Raw Est Fold Change” value was 1.71 and the “CRP Raw Est Fold Change” value was −63.77. The “CRYM Raw Est Fold Change” value was 3.57, the “CSDA Raw Est Fold Change” value was −5.60 and the “CTGF Raw Est Fold Change” value was −3.88. The “CX3CR1 Raw Est Fold Change” value was 9.27, the “CXCL11 Raw Est Fold Change” value was 3.15 and the “CYP1B1 Raw Est Fold Change” value was −6.56. The “CYR61 Raw Est Fold Change” value was −7.93, the “DHFR Raw Est Fold Change” value was 2.31 and the “DNAPTP6 Raw Est Fold Change” value was 2.61. For the same compound, the “EFNB2 Raw Est Fold Change” value was −7.87, the “EGR1 Raw Est Fold Change” value was −4.88 and the “EHHADH Raw Est Fold Change” value was 6.99. The “EIF2AK2 Raw Est Fold Change” value was −1.14, the “EIF2S2 Raw Est Fold Change” value was 1.81 and the “EMP1 Raw Est Fold Change” value was 2.60. For the same compound, the “EPAS1 Raw Est Fold Change” value was −1.83, the “EREG Raw Est Fold Change” value was −21.64 and the “ETS2 Raw Est Fold Change” value was −2.17. The “ETV6 Raw Est Fold Change” value was −1.87, the “ETV7 Raw Est Fold Change” value was −3.42 and the “EWSR1 Raw Est Fold Change” value was −2.03. The “F3 Raw Est Fold Change” value was 2.54, the “FAM70A Raw Est Fold Change” value was 4.10 and the “FAM102A Raw Est Fold Change” value was −1.88. For the same compound, the “FBXO6 Raw Est Fold Change” value was 3.59, the “FCGR1A Raw Est Fold Change” value was 2.56 and the “FER1L3 Raw Est Fold Change” value was −2.43. For the same compound, the “FGG Raw Est Fold Change” value was −1.22, the “FLT1 Raw Est Fold Change” value was −1.38 and the “FNDC3B Raw Est Fold Change” value was −2.02. The “G6PC Raw Est Fold Change” value was 6.12, the “GALNT2 Raw Est Fold Change” value was −6.32 and the “GBP2 Raw Est Fold Change” value was −4.50. For the same compound, the “GBP3 Raw Est Fold Change” value was 2.28, the “GCH1 Raw Est Fold Change” value was 1.83 and the “GK Raw Est Fold Change” value was −2.38. For the same compound, the “GLB1 Raw Est Fold Change” value was −1.33, the “GLUL Raw Est Fold Change” value was 3.54 and the “GNB1 Raw Est Fold Change” value was −1.39. For the same compound, the “GPR171 Raw Est Fold Change” value was 1.93, the “GRN Raw Est Fold Change” value was −1.37 and the “HAO1 Raw Est Fold Change” value was 3.59. For the same compound, the “HBE1 Raw Est Fold Change” value was −2.67, the “HDAC2 Raw Est Fold Change” value was −1.34 and the “HEG1 Raw Est Fold Change” value was −4.07. The “HERC6 Raw Est Fold Change” value was −1.49, the “HESX1 Raw Est Fold Change” value was 3.01 and the “HIF1A Raw Est Fold Change” value was −4.78. For the same compound, the “HK2 Raw Est Fold Change” value was −3.18, the “HLA-DMA Raw Est Fold Change” value was −2.39 and the “HLA-DOA Raw Est Fold Change” value was 3.70. For the same compound, the “HPSE Raw Est Fold Change” value was −2.92, the “ICAM1 Raw Est Fold Change” value was −9.02 and the “ID1 Raw Est Fold Change” value was −5.53. The “IER3 Raw Est Fold Change” value was −9.69, the “IFI16 Raw Est Fold Change” value was −11.00 and the “IFIH1 Raw Est Fold Change” value was 1.47. For the same compound, the “IFIT1 Raw Est Fold Change” value was 16.72, the “IFIT3 Raw Est Fold Change” value was 2.91 and the “IFITM1 Raw Est Fold Change” value was −15.75. For the same compound, the “IFITM2 Raw Est Fold Change” value was −4.71, the “IFITM3 Raw Est Fold Change” value was −1.73 and the “IFNGR1 Raw Est Fold Change” value was −3.76. For the same compound, the “IGHM Raw Est Fold Change” value was 3.80, the “IKZF2 Raw Est Fold Change” value was −2.69 and the “IL1RN Raw Est Fold Change” value was −2.59. For the same compound, the “IL6ST Raw Est Fold Change” value was −1.83, the “IL8 Raw Est Fold Change” value was −9.22 and the “IL17RB Raw Est Fold Change” value was 1.38. The “IL28RA Raw Est Fold Change” value was 1.55, the “IMPA2 Raw Est Fold Change” value was −1.62 and the “INPP5B Raw Est Fold Change” value was 1.29. The “IQGAP1 Raw Est Fold Change” value was −2.60, the “IRF1 Raw Est Fold Change” value was 1.36 and the “IRF7 Raw Est Fold Change” value was −3.42. The “IRF8 Raw Est Fold Change” value was −1.86, the “ISOC1 Raw Est Fold Change” value was 1.96 and the “ITGA2 Raw Est Fold Change” value was −5.40. For the same compound, the “ITGA6 Raw Est Fold Change” value was 1.89.
